From ChEMBL document CHEMBL1201862, “PubChem BioAssay data set” (2004)
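Dose response: 5 concentrations. Exposure: 48 h. Format: 96-well plates. Endpoint: linear interpolation; highest concentration if not reached. GI50 marks 50% less growth.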 Active and inactive are the calls of the source. Cut-off read from the data, not from the text of the source: active = GI50 up to about 1.1 µM and inactive = higher.

Experiments:
Assay in all cases: NCI-60 cell line screen, 48 h
KM12 = system: KM12
MDA-MB-231 = system: MDA-MB-231
SW-620 = system: SW-620
HOP-62 = system: HOP-62
OVCAR-4 = system: OVCAR-4
M14 = system: M14
COLO 205 = system: COLO 205
CAKI-1 = system: CAKI-1
BT-549 = system: BT-549
UO-31 = system: UO-31
MOLT-4 = system: MOLT-4
HCT-116 = system: HCT-116
K562 = system: K562
Hs-578T = system: Hs-578T
HT-29 = system: HT-29
RXF 393 = system: RXF 393
EKVX = system: EKVX
NCI-H460 = system: NCI-H460
HOP-92 = system: HOP-92
IGROV-1 = system: IGROV-1
SF-295 = system: SF-295
NCI-H226 = system: NCI-H226
SR = system: SR
NCI/ADR-RES = system: NCI/ADR-RES
U-251 = system: U-251
LOX IMVI = system: LOX IMVI
HL-60 = system: HL-60
NCI-H522 = system: NCI-H522
OVCAR-8 = system: OVCAR-8
SK-MEL-5 = system: SK-MEL-5
SK-MEL-28 = system: SK-MEL-28
DU-145 = system: DU-145
CCRF-CEM = system: CCRF-CEM
SN12C = system: SN12C
TK-10 = system: TK-10
SK-MEL-2 = system: SK-MEL-2
MDA-N = system: MDA-N
NCI-H23 = system: NCI-H23
A549 = system: A549
UACC-257 = system: UACC-257
SF-268 = system: SF-268
OVCAR-5 = system: OVCAR-5
786-0 = system: 786-0
ACHN = system: ACHN
OVCAR-3 = system: OVCAR-3
SNB-19 = system: SNB-19
SNB-75 = system: SNB-75
SK-OV-3 = system: SK-OV-3
HCT-15 = system: HCT-15
SF-539 = system: SF-539
MDA-MB-435 = system: MDA-MB-435
PC-3 = system: PC-3
Malme-3M = system: Malme-3M
T47D = system: T47D
RPMI-8226 = system: RPMI-8226
UACC-62 = system: UACC-62
MCF7 = system: MCF7
A498 = system: A498
HCC 2998 = system: HCC 2998

Measured: GI50

COc1ccc(C2=NN(C(=O)c3cccnc3)C(O)(c3cc(F)c(Cl)cc3Cl)C2)cc1OC (centres undefined)
14.8 µM: HCT-15
inactive: KM12 19.1 µM | MDA-MB-231 13.9 µM | SW-620 17.9 µM | HOP-62 19 µM | OVCAR-4 15.6 µM | M14 15.8 µM | COLO 205 12.3 µM | CAKI-1 24.1 µM | BT-549 19.3 µM | UO-31 17.5 µM | MOLT-4 8.97 µM | HCT-116 14.8 µM | K562 17.4 µM | Hs-578T 19.4 µM | HT-29 12.3 µM | RXF 393 15.5 µM | EKVX 19.6 µM | NCI-H460 15.2 µM | HOP-92 14.1 µM | IGROV-1 8.11 µM | SF-295 15.5 µM | NCI-H226 12.8 µM | SR 7.28 µM | NCI/ADR-RES 14.8 µM | U-251 13.8 µM | LOX IMVI 13.9 µM | HL-60 12.8 µM | NCI-H522 13.8 µM | OVCAR-8 14.5 µM | SK-MEL-5 12.1 µM | SK-MEL-28 19.5 µM | DU-145 27.9 µM | CCRF-CEM 11.4 µM | SN12C 15.3 µM | TK-10 30.4 µM | SK-MEL-2 14.8 µM | MDA-N 21.3 µM | NCI-H23 20.4 µM | A549 20.4 µM | UACC-257 13.6 µM | SF-268 17.3 µM | OVCAR-5 30.2 µM | 786-0 22 µM | ACHN 21.3 µM | OVCAR-3 11.5 µM | SNB-19 29.9 µM | SNB-75 23.5 µM | SK-OV-3 26.1 µM | SF-539 16.1 µM | MDA-MB-435 15.2 µM | PC-3 12.6 µM | Malme-3M 22.6 µM | T47D 24 µM | RPMI-8226 13.4 µM

CC1(C)C(OC(=O)c2ccccc2)C[C@]23CCC[C@](C)(C[C@@H](O)C12)C3 (some centres undefined)
inactive: KM12 16.7 µM | UACC-62 15.2 µM | SW-620 13.9 µM | HOP-62 24 µM | OVCAR-4 23.1 µM | M14 19.9 µM | COLO 205 17.5 µM | CAKI-1 19.9 µM | BT-549 15.6 µM | UO-31 18.8 µM | MOLT-4 10.5 µM | HCT-116 13.9 µM | K562 13.5 µM | Hs-578T 19 µM | MCF7 16.4 µM | HT-29 16.1 µM | EKVX 19.9 µM | NCI-H460 16.2 µM | HOP-92 16 µM | IGROV-1 20.2 µM | SF-295 13.9 µM | NCI-H226 18.8 µM | SR 9.91 µM | NCI/ADR-RES 14.5 µM | U-251 > 10 µM | LOX IMVI 17 µM | HL-60 31.5 µM | NCI-H522 15.5 µM | OVCAR-8 16.7 µM | SK-MEL-5 13.1 µM | SK-MEL-28 15.8 µM | DU-145 21.2 µM | CCRF-CEM 11.7 µM | SN12C 18.4 µM | TK-10 29.5 µM | SK-MEL-2 17.6 µM | MDA-N 18.9 µM | NCI-H23 16.9 µM | A549 16.3 µM | UACC-257 20.4 µM | SF-268 24.1 µM | OVCAR-5 15.3 µM | 786-0 19.6 µM | ACHN 17.9 µM | OVCAR-3 30.6 µM | SNB-19 23.6 µM | SNB-75 18.9 µM | SK-OV-3 85.7 µM | MDA-MB-435 18 µM | PC-3 11.5 µM | Malme-3M 19.2 µM | T47D 19.9 µM | RPMI-8226 23.9 µM
18.4 µM: HCT-15

CCCCc1ccc(Nc2nc(Cl)c3[nH]cnc3n2)cc1
18 µM: HCT-15
inactive: KM12 17.1 µM | MDA-MB-231 16.6 µM | UACC-62 16.4 µM | SW-620 19.2 µM | A498 21.4 µM | HOP-62 14 µM | OVCAR-4 34.4 µM | M14 20.9 µM | COLO 205 24.2 µM | CAKI-1 27.2 µM | BT-549 28.1 µM | UO-31 23.8 µM | MOLT-4 20.4 µM | HCT-116 16.3 µM | K562 32.7 µM | Hs-578T 24.5 µM | MCF7 20.4 µM | HT-29 19.9 µM | RXF 393 17.1 µM | EKVX 33.8 µM | HOP-92 11.6 µM | IGROV-1 25.6 µM | SF-295 17.7 µM | NCI-H226 39.6 µM | SR 47.8 µM | NCI/ADR-RES 19.3 µM | LOX IMVI 13.7 µM | HL-60 42.1 µM | NCI-H522 24.2 µM | OVCAR-8 18.4 µM | SK-MEL-5 16.7 µM | DU-145 17.9 µM | CCRF-CEM 39.1 µM | SN12C 22.4 µM | TK-10 22.8 µM | SK-MEL-2 14.6 µM | MDA-N 21.9 µM | NCI-H23 17.7 µM | A549 33.5 µM | UACC-257 16.2 µM | SF-268 22 µM | OVCAR-5 40.6 µM | 786-0 15.7 µM | ACHN 20.8 µM | OVCAR-3 14.8 µM | SNB-19 19.1 µM | SNB-75 33 µM | SK-OV-3 34.3 µM | SF-539 18.7 µM | MDA-MB-435 16.8 µM | Malme-3M 19.3 µM | HCC 2998 25.5 µM | T47D 11.2 µM | RPMI-8226 33.2 µM
